We go through 19 compounds from publication PMC8704611, “Synthesis, Molecular Docking Analysis, and Biological Evaluations of Saccharide-Modified Sulfonamides as Carbonic Anhydrase IX Inhibitors” (International Journal of Molecular Sciences, 2021).

Molecules are shown by their SMILES.

Data set [1] concerns the target hCA IX (Homo sapiens, UniProt Q16790). Briefly: CA inhibition assay (hydrolysis of 4-nitrophenylacetate). It is filed as biochemical. Conditions: 4-NPA hydrolysis; three independent assays, relative errors 5–10%. From the text: (§1) Carbonic anhydrase has the ability to catalyse the hydrolysis of 4-NPA. […] More detailed operations and specific parameters are as reported earlier.

Data set [2] addresses hCA II (Homo sapiens, UniProt P00918). The data set is described as above. It counts as biochemical. The following applies: 4-NPA hydrolysis; three independent assays, relative errors 5–10%.
Text: as §1

For the compound `NS(=O)(=O)c1ccc(-n2cc(-c3ccc(NC(=O)CCCC(=O)N[C@@H]4O[C@H](CO)[C@@H](O)[C@H](O)[C@H]4O)c(Cl)c3)nn2)cc1` [Compound 16k, N^1-(2-chloro-4-(1-(4-sulfamoylphenyl)-1H-1,2,3-triazol-4-yl)phenyl)-N^5-((2R,3R,4S,5S,6R)-3,4,5-trihydroxy-6-(hydroxymethyl)tetrahydro-2H-pyran-2-yl)glutaramide], the IC50 in data set [1] is 290 nM; in data set [2] it was 91 nM.

The compound `COc1cc(-c2cn(-c3ccc(S(N)(=O)=O)cc3)nn2)ccc1N` [Compound 14f, 4-(4-(4-Amino-3-methoxyphenyl)-1H-1,2,3-triazol-1-yl)benzenesulfonamide] returned a melting point of 230 to 233 °C. The compound also gave a half-inhibitory concentration (IC50) in data set [1] of 120 nM. The same compound yielded an IC50 in data set [2] of 100 nM.

As to `NS(=O)(=O)c1ccc(-n2cc(-c3cc(F)c(NC(=O)CCC(=O)N[C@@H]4O[C@H](CO)[C@@H](O)[C@H](O)[C@H]4O)c(F)c3)nn2)cc1` [Compound 16g, N^1-(2,6-difluoro-4-(1-(4-sulfamoylphenyl)-1H-1,2,3-triazol-4-yl)phenyl)-N^4-((2R,3R,4S,5S,6R)-3,4,5-trihydroxy-6-(hydroxymethyl)tetrahydro-2H-pyran-2-yl)succinamide], the 50% inhibitory concentration (IC50) turned out to be 544 nM in data set [1] and 149 nM in data set [2].

Consider `Cc1cc(-c2cn(-c3ccc(S(N)(=O)=O)cc3)nn2)ccc1NC(=O)CCCC(=O)N[C@@H]1O[C@H](CO)[C@@H](O)[C@H](O)[C@H]1O` [Compound 16l, N^1-(2-methyl-4-(1-(4-sulfamoylphenyl)-1H-1,2,3-triazol-4-yl)phenyl)-N^5-((2R,3R,4S,5S,6R)-3,4,5-trihydroxy-6-(hydroxymethyl)tetrahydro-2H-pyran-2-yl)glutaramide], for which the values for the IC50 in data set [1] and in data set [2] were 161 nM and 25.6 nM, respectively.

`Nc1c(F)cc(-c2cn(-c3ccc(S(N)(=O)=O)cc3)nn2)cc1F` [Compound 14g, 4-(4-(4-Amino-3,5-difluorophenyl)-1H-1,2,3-triazol-1-yl)benzenesulfonamide] registered a melting point of 280 to 283 °C. The compound further yielded an IC50 in data set [1] of 107 nM. This compound also came in with an IC50 in data set [2] of 87 nM.

For the compound `NS(=O)(=O)c1ccc(-n2cc(-c3cc(F)c(NC(=O)CCCC(=O)N[C@@H]4O[C@H](CO)[C@@H](O)[C@H](O)[C@H]4O)c(F)c3)nn2)cc1` [Compound 16n, N^1-(2,6-difluoro-4-(1-(4-sulfamoylphenyl)-1H-1,2,3-triazol-4-yl)phenyl)-N^5-((2R,3R,4S,5S,6R)-3,4,5-trihydroxy-6-(hydroxymethyl)tetrahydro-2H-pyran-2-yl)glutaramide], the IC50 was 352 nM in data set [1] and 177 nM in data set [2].

For the compound `COc1cc(-c2cn(-c3ccc(S(N)(=O)=O)cc3)nn2)ccc1NC(=O)CCC(=O)N[C@@H]1O[C@H](CO)[C@@H](O)[C@H](O)[C@H]1O` [Compound 16f, N^1-(2-methoxy-4-(1-(4-sulfamoylphenyl)-1H-1,2,3-triazol-4-yl)phenyl)-N^4-((2R,3R,4S,5S,6R)-3,4,5-trihydroxy-6-(hydroxymethyl)tetrahydro-2H-pyran-2-yl)succinamide], the IC50 in data set [1] came out at 329 nM; in data set [2], 112 nM.

Take `NS(=O)(=O)c1ccc(-n2cc(-c3ccc(NC(=O)CCCC(=O)N[C@@H]4O[C@H](CO)[C@@H](O)[C@H](O)[C@H]4O)c(F)c3)nn2)cc1` [Compound 16j, N^1-(2-fluoro-4-(1-(4-sulfamoylphenyl)-1H-1,2,3-triazol-4-yl)phenyl)-N^5-((2R,3R,4S,5S,6R)-3,4,5-trihydroxy-6-(hydroxymethyl)tetrahydro-2H-pyran-2-yl)glutaramide]: the values for the half-inhibitory concentration (IC50) in data set [1] and in data set [2] were 230 nM and 88.4 nM, respectively.

The compound `Nc1ccc(-c2cn(-c3ccc(S(N)(=O)=O)cc3)nn2)cc1Cl` [Compound 14d, 4-(4-(4-Amino-3-chlorophenyl)-1H-1,2,3-triazol-1-yl)benzenesulfonamide] yielded a melting point of 201 to 203 °C. In addition, in data set [1], 71 nM corresponded to half-maximal inhibition (IC50). This compound registered an IC50 in data set [2] of 39.9 nM.

As to `NS(=O)(=O)c1ccc(-n2cc(-c3ccc(NC(=O)CCCC(=O)N[C@@H]4O[C@H](CO)[C@@H](O)[C@H](O)[C@H]4O)c([N+](=O)[O-])c3)nn2)cc1` [Compound 16o, N^1-(2-nitro-4-(1-(4-sulfamoylphenyl)-1H-1,2,3-triazol-4-yl)phenyl)-N^5-((2R,3R,4S,5S,6R)-3,4,5-trihydroxy-6-(hydroxymethyl)tetrahydro-2H-pyran-2-yl)glutaramide], the IC50 in data set [1] worked out at 216 nM; in data set [2], 129 nM.

`NS(=O)(=O)c1ccc(-n2cc(-c3ccc(NC(=O)CCCC(=O)N[C@@H]4O[C@H](CO)[C@@H](O)[C@H](O)[C@H]4O)cc3)nn2)cc1` [Compound 16h, N^1-(4-(1-(4-sulfamoylphenyl)-1H-1,2,3-triazol-4-yl)phenyl)-N^5-((2R,3R,4S,5S,6R)-3,4,5-trihydroxy-6-(hydroxymethyl)tetrahydro-2H-pyran-2-yl)glutaramide]: the half-inhibitory concentration (IC50) is 270 nM in data set [1] and 26 nM in data set [2].

Consider `Cc1cc(-c2cn(-c3ccc(S(N)(=O)=O)cc3)nn2)ccc1N` [Compound 14e, 4-(4-(4-Amino-3-methylphenyl)-1H-1,2,3-triazol-1-yl)benzenesulfonamide], for which the melting point is 264 to 266 °C. This compound returned a 50% inhibitory concentration (IC50) in data set [1] of 111 nM. In data set [2], this compound gave an IC50 of 37.9 nM.

For `Nc1cccc(-c2cn(-c3ccc(S(N)(=O)=O)cc3)nn2)c1` [Compound 14b, 4-(4-(3-Aminophenyl)-1H-1,2,3-triazol-1-yl)benzenesulfonamide], the melting point was 270 to 273 °C. The IC50 in data set [1] worked out at 50.4 nM. This compound also showed an IC50 in data set [2] of 12.3 nM.

As to `Nc1ccc(-c2cn(-c3ccc(S(N)(=O)=O)cc3)nn2)cc1` [Compound 14a, 4-(4-(4-Aminophenyl)-1H-1,2,3-triazol-1-yl)benzenesulfonamide], the melting point lay in the range of 256 to 258 °C. The same compound had an IC50 in data set [1] of 54.4 nM. In addition, half-maximal inhibition in data set [2] (IC50) required 19.3 nM.

Take `Nc1ccc(-c2cn(-c3ccc(S(N)(=O)=O)cc3)nn2)cc1F` [Compound 14c, 4-(4-(4-Amino-3-fluorophenyl)-1H-1,2,3-triazol-1-yl)benzenesulfonamide]: the melting point is 245 to 247 °C. In addition, the IC50 in data set [1] was 40.4 nM. Also, the IC50 in data set [2] is 15.7 nM.

As for `NS(=O)(=O)c1ccc(-n2cc(-c3ccc(NC(=O)CCC(=O)N[C@@H]4O[C@H](CO)[C@@H](O)[C@H](O)[C@H]4O)c(Cl)c3)nn2)cc1` [Compound 16d, N^1-(2-chloro-4-(1-(4-sulfamoylphenyl)-1H-1,2,3-triazol-4-yl)phenyl)-N^4-((2R,3R,4S,5S,6R)-3,4,5-trihydroxy-6-(hydroxymethyl)tetrahydro-2H-pyran-2-yl)succinamide], the figures for the IC50 in data set [1] and in data set [2] were 100 nM and 90.8 nM, respectively.

As to `NS(=O)(=O)c1ccc(-n2cc(-c3cccc(NC(=O)CCCC(=O)N[C@@H]4O[C@H](CO)[C@@H](O)[C@H](O)[C@H]4O)c3)nn2)cc1` [Compound 16i, N^1-(3-(1-(4-sulfamoylphenyl)-1H-1,2,3-triazol-4-yl)phenyl)-N^5-((2R,3R,4S,5S,6R)-3,4,5-trihydroxy-6-(hydroxymethyl)tetrahydro-2H-pyran-2-yl)glutaramide], the IC50 in data set [1] stood at 300 nM; in data set [2] it was 10.1 nM.

Turning to `Nc1ccc(-c2cn(-c3ccc(S(N)(=O)=O)cc3)nn2)cc1[N+](=O)[O-]` [Compound 14h, 4-(4-(4-Amino-3-nitrophenyl)-1H-1,2,3-triazol-1-yl)benzenesulfonamide], the melting point was in the range of 222 to 225 °C. The same compound gave a half-maximal inhibitory concentration (IC50) in data set [1] of 58.2 nM. This compound also came in with a half-inhibitory concentration (IC50) in data set [2] of 102 nM.

As to `NS(=O)(=O)c1ccc(-n2cc(-c3ccc(NC(=O)CCC(=O)N[C@@H]4O[C@H](CO)[C@@H](O)[C@H](O)[C@H]4O)c(F)c3)nn2)cc1` [Compound 16c, N^1-(2-fluoro-4-(1-(4-sulfamoylphenyl)-1H-1,2,3-triazol-4-yl)phenyl)-N^4-((2R,3R,4S,5S,6R)-3,4,5-trihydroxy-6-(hydroxymethyl)tetrahydro-2H-pyran-2-yl)succinamide], the IC50 in data set [1] stood at 150 nM; in data set [2] it was 70.2 nM.
